Like-named read-outs stand apart in the source and are kept apart here.
Columns and labels:
[1] = PRK clinical study, residual compound I in bandage contact lens; assay type: in vivo, human; conditions: Day 4; for concentration at 4 day: human, bandage contact lens extract, topical, 0.925 mg, 0.55 mL extraction fluid
Description: Compound I was quantified in plasma using a validated LC-MS/MS method; the lower limit of quantification (LLOQ) was 0.05 ng/mL. Concentrations were expressed in ng per mL units. When feasible, bandage contact lenses (BCL) exposed to study drug were collected and analyzed for residual drug exposure after treatment (LLOQ: 5.00 ng/mL in 0.55 mL of extraction fluid, or 2.75 ng/BCL). Concentrations below the LLOQ were reported as “zero” and missing data were labeled as such.
Bandage Contact Lens (BCL) was collected from 40 patients on Day 4 of the dose administration and analyzed for compound I. Values from the three IMP non-compliant patients were excluded from BCL summary statistics, leaving 37 values evaluable, including one value from a patient without available plasma PK. The mean concentration of compound I (CV %) in 0.55 mL extraction fluid was 8500 ng/mL (73.1%), with a wide range of 284 to 22600 ng/mL. These concentrations translate to an estimated mean of 4680 ng/lens (0.55 mL×8500 ng/mL), and a range of 156 to 12400 ng/lens. The amount in BCL was very small in relation to the 0.925 mg dose of compound I administered: mean 0.51%, and range of 0.017% to 1.3% of dose.

TRPV1 receptor = TRPV1 receptor (Homo sapiens, UniProt Q8NER1); assay: TRPV1 receptor activity; assay type: cell-based
Chain of TRPV1 receptor (Q8NER1 whole entry): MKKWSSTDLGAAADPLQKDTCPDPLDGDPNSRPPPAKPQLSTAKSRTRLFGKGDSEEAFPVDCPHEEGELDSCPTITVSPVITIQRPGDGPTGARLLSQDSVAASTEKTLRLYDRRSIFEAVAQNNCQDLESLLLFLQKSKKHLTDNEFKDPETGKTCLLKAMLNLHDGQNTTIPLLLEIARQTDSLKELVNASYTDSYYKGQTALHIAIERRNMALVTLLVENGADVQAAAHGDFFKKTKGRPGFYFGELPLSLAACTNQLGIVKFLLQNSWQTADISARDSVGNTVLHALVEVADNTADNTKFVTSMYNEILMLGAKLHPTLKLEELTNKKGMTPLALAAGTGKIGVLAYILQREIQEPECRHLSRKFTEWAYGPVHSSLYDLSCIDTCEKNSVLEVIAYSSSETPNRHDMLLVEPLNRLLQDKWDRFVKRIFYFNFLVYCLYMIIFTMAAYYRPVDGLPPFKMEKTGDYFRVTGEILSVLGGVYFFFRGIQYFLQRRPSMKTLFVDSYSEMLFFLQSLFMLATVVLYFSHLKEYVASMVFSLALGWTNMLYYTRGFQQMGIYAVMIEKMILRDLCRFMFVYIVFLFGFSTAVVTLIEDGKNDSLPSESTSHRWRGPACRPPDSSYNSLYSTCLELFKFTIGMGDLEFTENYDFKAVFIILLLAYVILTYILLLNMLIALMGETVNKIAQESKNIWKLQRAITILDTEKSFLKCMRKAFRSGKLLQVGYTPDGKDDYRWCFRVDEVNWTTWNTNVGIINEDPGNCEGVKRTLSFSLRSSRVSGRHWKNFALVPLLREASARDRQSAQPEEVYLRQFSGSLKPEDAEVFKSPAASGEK
Description: “TRPV1 receptor” refers to the Transient Receptor Potential Vanilloid 1 that has been characterized through molecular cloning and pharmacology. See e.g., Caterina M J, et al., Nature 1997; 389:816-824. TRPV1 receptor activity is measured as described in WO2005/120510, hereby incorporated by reference in its entirety.

[2] = Pharmacokinetic study of exploratory formulations, single bilateral topical ocular dosing; assay type: in vivo; conditions: NZW rabbits
Description: A pharmacokinetics study was conducted to determine the ocular uptake of compound I following single bilateral topical ocular dosing of male NZW rabbits with the four exploratory formulations provided in Table 2: FID 121522, FID 121511, FID 121512, FID 121513.

[3] = system: postoperative ocular pain in patients undergoing photorefractive keratectomy (PRK) surgery; assay: PRK clinical study, Ocular Pain Assessment Survey (OPAS); assay type: in vivo, human
Excerpt: The Ocular Pain Assessment Survey (OPAS) is a quantitative, multidimensional questionnaire, specifically designed for assessment of corneal and ocular surface pain and Quality of Life (QoL) changes. The OPAS assesses pain intensity, frequency of eye and non-eye pain, QoL changes, aggravating factors, associated factors, and symptomatic relief quantitative, allowing for monitoring of treatment responses. See Qazi et al., Ophthalmology July 123(7):1458-1468 (2016).
The OPAS is a validated instrument for quantifying and monitoring corneal and ocular surface pain and quality of life, developed in response to an identified need from a National Eye Institute Workshop in 2010. See Qazi et al., Ophthalmology July 123(7):1458-1468 (2016). The rating scale of the overall pain severity in the OPAS from Qazi et al. rated from 0 (no pain) to 10 (severe pain) or for frequency of symptoms from 0% (never) to 100% (all the time), as per the survey. The patients were asked to fill out the OPAS survey/questionnaire at Day 2, Day 4 (at the end of treatment period with study drug) and Day 8. Statistical analysis of OPAS results was not performed.

CC(C)c1nc2cc(O)ccc2c(=O)n1-c1ccc(C#N)cc1 [Compound I, 4-(7-hydroxy-2-isopropyl-4-oxo-4H-quinazolin-3-yl)-benzonitrile]
amount in BCL in relation to the 0.925 mg dose, mean [1]: 0.51 % of dose
estimated mean amount in bandage contact lens [1]: 4680 ng/lens
concentration at 4 day ([1]; read-out: concentration of compound I in bandage contact lens extract, range): 284 to 22600 ng/mL
concentration at 4 day ([1]; read-out: mean concentration of compound I in bandage contact lens extract): 8500 ng/mL
IC50 (TRPV1 receptor): 30 nM
exposure in cornea relative to aqueous humor and iris-ciliary body [2]: approximately 10 times
Kp ([2]; male, rabbit, cornea / plasma, topical, read-out: exposure in cornea relative to plasma): ~500
OPAS eye pain intensity during the previous 24 hours (questions 4, 5, 6) versus Vehicle ([3]; Day 2): all 3 answers numerically favored compound I
OPAS how often eye pain with redness, burning, sensitivity to light, tearing (questions 22-25) versus Vehicle ([3]; human, in vivo): all answers favored compound I

Reference: patent publication US20200390767A1, “Formulations of 4-(7-Hydroxy-2-isopropyl-4-oxo-4H-quinazolin-3-yl)-benzonitrile” (NOVARTIS AG, priority 2019, published 2020)
